Source: ChEMBL document CHEMBL1142670, “Synthesis, nicotinic acetylcholine receptor binding, and antinociceptive properties of 3'-substituted deschloroepibatidine analogues. Novel nicotinic antagonists” (J Med Chem, 2005)
pKi: −log10 of the molar value.

Tests used:
Mus musculus [1] = species on record: Mus musculus; test: Effective dose to induce antinociception in mouse determined in tail-flick test; assay type: functional
Mus musculus [2] = test: Anesthetic dose in mouse in tail-flick test; assay type: functional
[3] = target: Neuronal acetylcholine receptor; alpha4/beta2 (Rattus norvegicus, UniProt P09483+P12390); test: Inhibition of [3H]epibatidine binding to Nicotinic acetylcholine receptor alpha4-beta2 in rat cerebral cortex; assay type: tissue-based
Mus musculus [4] = test: Effect on body temperature of mouse was determined at 0.01 ug/kg; assay type: functional
Mus musculus [5] = species on record: Mus musculus; test: Effective dose to induce hypothermia in mouse was determined; assay type: functional
Mus musculus [6] = test: Anesthetic dose in hotplate test in mouse; assay type: functional
[7] = target: Neuronal acetylcholine receptor subunit alpha-7 (Rattus norvegicus, UniProt Q05941); test: Inhibition of [125I]-iodo-MLA binding to Nicotinic acetylcholine receptor alpha-7 in rat cerebral cortex; assay type: tissue-based
Mus musculus [8] = species on record: Mus musculus; test: Effective dose to induce antinociception in mouse determined in hotplate test; assay type: functional
Mus musculus [9] = species on record: Mus musculus; test: Effective dose to induce spontaneous activity in mouse was determined; assay type: functional
Mus musculus [10] = test: Effect on body temperature of mouse was determined at 0.02 ug/kg; assay type: functional
Mus musculus [11] = test: Anesthetic effect in hotplate test in mouse at 0.1 ug/kg; assay type: functional
Mus musculus [12] = test: Anesthetic effect in hotplate test in mouse at 10 ug/kg; assay type: functional
Mus musculus [13] = test: Effect on body temperature of mouse was determined at 10 ug/kg; assay type: functional
Mus musculus [14] = test: Anesthetic effect in mouse in hotplate test at 20 ug/kg; assay type: functional
[15] = Effect on body temperature of mouse was measured in tail-flick test at the rate 500 ug/kg; assay type: functional
Mus musculus [16] = test: Anesthetic effect in mouse in hotplate test at 10 ug/kg; assay type: functional
[17] = Mus musculus, Tail, read-out: ED50

Sequence of Neuronal acetylcholine receptor; alpha4/beta2 (P09483 whole entry): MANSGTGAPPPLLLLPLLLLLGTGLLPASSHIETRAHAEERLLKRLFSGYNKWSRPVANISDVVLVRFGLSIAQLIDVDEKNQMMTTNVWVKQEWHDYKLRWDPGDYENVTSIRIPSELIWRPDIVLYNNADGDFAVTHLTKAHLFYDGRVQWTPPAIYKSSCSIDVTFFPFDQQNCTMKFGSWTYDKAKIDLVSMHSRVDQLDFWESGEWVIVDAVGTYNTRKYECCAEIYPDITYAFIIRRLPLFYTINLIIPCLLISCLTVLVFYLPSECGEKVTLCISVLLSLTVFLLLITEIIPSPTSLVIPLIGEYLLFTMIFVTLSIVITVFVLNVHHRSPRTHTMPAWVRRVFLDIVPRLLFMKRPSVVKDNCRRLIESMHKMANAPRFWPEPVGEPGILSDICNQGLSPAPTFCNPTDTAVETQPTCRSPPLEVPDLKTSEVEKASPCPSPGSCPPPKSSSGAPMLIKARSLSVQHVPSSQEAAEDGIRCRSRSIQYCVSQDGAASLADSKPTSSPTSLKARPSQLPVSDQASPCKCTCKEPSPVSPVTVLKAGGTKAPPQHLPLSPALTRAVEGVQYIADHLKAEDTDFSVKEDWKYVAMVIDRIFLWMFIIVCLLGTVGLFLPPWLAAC
Sequence of Neuronal acetylcholine receptor; alpha4/beta2 (P12390 whole entry): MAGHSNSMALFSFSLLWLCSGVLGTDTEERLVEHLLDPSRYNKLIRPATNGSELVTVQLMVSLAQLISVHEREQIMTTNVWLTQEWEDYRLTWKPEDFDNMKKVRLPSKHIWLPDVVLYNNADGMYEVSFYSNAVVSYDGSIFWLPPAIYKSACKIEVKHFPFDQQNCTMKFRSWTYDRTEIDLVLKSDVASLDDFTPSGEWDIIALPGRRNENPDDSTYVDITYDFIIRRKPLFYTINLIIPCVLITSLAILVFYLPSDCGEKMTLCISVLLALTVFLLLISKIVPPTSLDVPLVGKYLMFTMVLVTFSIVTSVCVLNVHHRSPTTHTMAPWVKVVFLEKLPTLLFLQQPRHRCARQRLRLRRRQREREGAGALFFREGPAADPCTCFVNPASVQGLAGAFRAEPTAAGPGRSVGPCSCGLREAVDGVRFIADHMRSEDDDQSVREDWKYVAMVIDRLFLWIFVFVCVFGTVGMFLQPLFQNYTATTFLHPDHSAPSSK
Sequence of Neuronal acetylcholine receptor subunit alpha-7 (Q05941 whole entry): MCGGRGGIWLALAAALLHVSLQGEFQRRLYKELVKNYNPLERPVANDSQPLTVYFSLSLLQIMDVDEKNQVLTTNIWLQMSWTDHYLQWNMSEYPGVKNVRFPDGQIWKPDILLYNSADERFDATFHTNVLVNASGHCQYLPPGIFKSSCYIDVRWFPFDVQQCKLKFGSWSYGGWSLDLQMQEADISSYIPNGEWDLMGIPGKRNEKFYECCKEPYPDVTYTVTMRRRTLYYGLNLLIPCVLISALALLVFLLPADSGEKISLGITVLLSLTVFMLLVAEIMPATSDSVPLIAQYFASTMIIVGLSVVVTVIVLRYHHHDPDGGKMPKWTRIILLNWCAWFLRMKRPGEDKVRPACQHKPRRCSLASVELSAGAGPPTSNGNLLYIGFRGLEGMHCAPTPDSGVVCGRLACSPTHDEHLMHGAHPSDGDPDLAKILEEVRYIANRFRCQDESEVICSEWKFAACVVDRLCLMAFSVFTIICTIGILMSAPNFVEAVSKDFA

SMILES	ED50 (Mus musculus [1]; [17])	AD50 (Mus musculus [2])	pKi [3]	Effect (Mus musculus [4])	ED50 (Mus musculus [5]; Mus musculus, read-out: ED50)	AD50 (Mus musculus [6])	pKi [7]	ED50 (Mus musculus [8]; Mus musculus, read-out: ED50)	ED50 (Mus musculus [9]; Mus musculus, read-out: ED50)	Effect (Mus musculus [10])	Anesthetic effect (Mus musculus [11])	Anesthetic effect (Mus musculus [12])	Effect (Mus musculus [13])	Anesthetic effect (Mus musculus [14])	ED50 (Mus musculus [1])	Increase [15]	ED50 (Mus musculus [8])	ED50 (Mus musculus [9])	Anesthetic effect (Mus musculus [16])	ED50 (Mus musculus [5])
Nc1cncc(C2CC3CCC2N3)c1 (centres undefined)	4700 µg/kg	1.6 µg/kg	10.01	0%	2700 µg/kg	6.9 µg/kg	6.14	3100 µg/kg	900 µg/kg											
Clc1cncc(C2CC3CCC2N3)c1 (centres undefined)	300 µg/kg	0.2 µg/kg	10.26		150 µg/kg	15 µg/kg	7.30	230 µg/kg	40 µg/kg	0%										
Brc1cncc(C2CC3CCC2N3)c1 (centres undefined)	1200 µg/kg	15 µg/kg	10.30	0%	70 µg/kg	0.78 µg/kg	6.79	570 µg/kg	100 µg/kg											
C#Cc1cncc(C2CC3CCC2N3)c1 (centres undefined)	1000 µg/kg	6 µg/kg	10.70	0%	50 µg/kg		8.30	560 µg/kg	1 µg/kg		0%									
C=Cc1cncc(C2CC3CCC2N3)c1 (centres undefined)	1000 µg/kg	2.4 µg/kg	9.59	0%	450 µg/kg	100 µg/kg	6.46	800 µg/kg	200 µg/kg											
CN1C2CCC1C(c1cncc(I)c1)C2 (centres undefined)	600 µg/kg	0.04 µg/kg	10.54		340 µg/kg		7.48	370 µg/kg	30 µg/kg			0%	0%							
Fc1cncc(C2CC3CCC2N3)c1 (centres undefined)	80 µg/kg	0.07 µg/kg			150 µg/kg		< 6.00	50 µg/kg	23 µg/kg	0%				35%						
Ic1cncc(C2CC3CCC2N3)c1 (single isomer, unassigned; (+))		1.2 µg/kg	10.35				6.75							15%	780 µg/kg	6%	60 µg/kg	91 µg/kg		
Ic1cncc(C2CC3CCC2N3)c1 (single isomer, unassigned; (-))		0.11 µg/kg	10.32				6.81								940 µg/kg		210 µg/kg	351 µg/kg	15%	480 µg/kg
Ic1cncc(C2CC3CCC2N3)c1 (stereo in doubt; 3d)	800 µg/kg	0.1 µg/kg		0%	780 µg/kg	0.24 µg/kg	6.82										900 µg/kg	130 µg/kg		
Clc1ccc(C2CC3CCC2N3)cn1 (centres undefined) [EPIBATIDINE]	6 µg/kg				4 µg/kg			4 µg/kg	1 µg/kg											
CN1CCC[C@H]1c1cccnc1 [NICOTINE]	1300 µg/kg				1000 µg/kg			650 µg/kg	500 µg/kg											
